Measurements published in patent US7501281B2, “Compositions, methods and kits related to thrombin, Notch signaling and stamatogenesis and growth of stem cells” (Maine Medical Center Research Institute, priority 2003, dated 2009).

How the values were obtained:
Type in all cases: cell-based, murine
[1] = test system: Notch-dependent CSL1 activity in full-length Jagged1 NIH 3T3 cell transfectants; assay: Dual Luciferase Reporter Assay of CSL1-dependent transcription
[2] = test system: NIH 3T3 stable transfectants; assay: Analysis of FGF1-induced spheroid formation; conditions: for spheroid formation: 10 ng/ml FGF1, 10 U/ml heparin
Method: Clonal populations of NIH 3T3 stable transfectants were resuspended and grown in media containing 10% BCS, 10% BCS containing 1 μM PD166866, 10% BCS containing 10 ng/ml recombinant human FGF1 and 10 U/ml heparin or 10% BCS containing 10 ng/ml recombinant human FGF1, 10 U/ml heparin and 1 μM PD166866 as indicated in the figure legend. Approximately 2×10^5 cells were plated per well (6-well dish) and three days after plating, phase-contrast micrographs of the cells were taken.

[3] = test system: caN1/CSL transcription in NIH 3T3 transfectants; assay: Transient transfection assay of CSL-regulated transcription; conditions: 1, 2.5, 5 or 10 ng/ml FGF1
Method: NIH 3T3 cells were plated onto fibronectin-coated (10 μg/cm2) 12-well tissue culture dishes and transiently transfected at approximately 80% confluency with 500 ng of a Luciferase construct activated by 4 tandem copies of the CSL (CBF1) response element (Hsieh et al. 1996, Mol. Cell. Biol. 16: 952-959), 100 ng of the TK Renilla (Promega) construct as an internal control for transfection efficiency, and 500 ng of either vector control, sJ1 or caN1 constructs using Fugene 6 (Roche) per manufacturer's instructions. For analysis of caN1 activity in the background of NIH 3T3 stable lines, vector control, caN1, sJ1 and hst-β(FGF4):FGF1 stable transfectants were plated onto fibronectin-coated (10 μg/cm2) 12-well tissue culture dishes and transiently transfected with 500 ng of the CSL-Luciferase construct, 100 ng of the TK Renilla (Promega) construct as an internal control for transfection efficiency, and 200 ng of caN1. […] The cells were harvested 48 hours after the media change and Luciferase/Renilla activity was measured using Promega's Dual-Luciferase Reporter Assay System. The efficiency of transcription was measured and normalized in relationship to the activity of pRL-TK Renilla and the activity is reported as the ratio of Luciferase/Renilla activity. […]

[4] = test system: NIH 3T3 stable transfectants; assay: Colony formation in soft agar; conditions: for effect on colonies in soft agar: 10 ng/ml FGF1
Method: Clonal populations of NIH 3T3 cells stably transfected with vector control, soluble Jagged1 (sJ1), constitutively active Notch1 (caN1), constitutively active Notch2 (caN2), dominant negative Notch 1 (dnN1), dominant negative Notch 2 (dnN2), an oncogenic mutant of FGF1 engineered with the FGF4 signal peptide sequence (hst-β (FGF4):FGF1), or constitutively active oncogenic Ras construct (caRas), were plated on 6 cm tissue culture dishes with 0.5% agar in an overlay containing DMEM (Gibco BRL) media, 10% bovine calf serum (BCS; Hyclone), and 0.33% agar at 1.5×10^3 cells/dish. As indicated, some dishes were also treated with 1 μM of the FGFR1-specific inhibitor, PD166866 (Panek et al., 1998, J. Pharmacol. Exp. Ther. 286: 569-577) and/or 10 ng/ml recombinant human FGF1 and 10 U/ml heparin (Sigma). Cells were fed with 0.5 ml of media with or without FGF1 and/or the FGFR1-specific inhibitor every 3 days as indicated. Twenty days after plating, colonies were stained with p-iodonitrotetrazolium violet (Sigma) for visualization. Quantitation of colony formation was achieved by counting all p-iodonitrotetrazolium violet-stained colonies consisting of more than 4 cells under a Zeiss Stemi SVII Apo dissecting microscope.

[5] = test system: Swiss 3T3 cells expressing a dominant-negative FGFR1 mutant; assay: DNA synthesis assay, (3H)-thymidine autoradiography; conditions: 10 ng/ml FGF1 plus 10 units/ml heparin
Method: A combination of (^3H)-thymidine autoradiography and immunohistochemistry was used to evaluate the levels of DNA synthesis in Swiss 3T3 cells expressing a dominant-negative FGFR1 mutant. Swiss 3T3 cells were plated at 50% confluency on glass coverslips precoated with fibronectin (10 μg/cm^2) for 24 hours. The cells were transfected with the pCS2 vector expressing a dominant-negative X. laevis FGFR1 deletion mutant lacking the FGFR1 intracellular domain (a gift from Dr. R. Friesel) using the Fugene 6 reagent (Roche). After 24 hours, the medium was changed to DMEM containing 0.25% BCS and following a 48 hour incubation in low BCS, the cells were stimulated with either 10 μg/ml of α-thrombin, 10% BCS or 10 ng/ml of recombinant FGF1 plus 10 units/ml of heparin. After stimulation for 24 hours, (^3H)-thymidine (NEN; 1 μCi/ml) was added to the medium and cells were incubated for 12 hours and fixed with 4% neutral formaldehyde. […] The percentage of (^3H)-labeled nuclei among the dnFGFR1-positive and dnFGFR1-negative cells was quantitated using an inverted Olympus microscope.
Thus, a dominant-negative (dn) FGFR1 construct was expressed in Swiss 3T3 cells and their proliferative index measured in the presence and absence of exogenous thrombin.

[6] = test system: Jagged1 in NIH 3T3 stable transfectants; assay: Immunoblot analysis of Jagged1 expression; conditions: 10 ng/ml FGF1 and 10 U/ml heparin; all stable lines examined
Method: Vector control, SJ1, CaN1, J1, Hstβ(FGF4):FGF1 and sJ1:caN1 stable NIH 3T3 cell transfectants were plated on tissue culture dishes in either normal growth media (DMEM (Gibco BRL) media, 10% bovine calf serum (BCS; Hyclone)) or normal growth media containing 10 ng/ml recombinant FGF1 and 10 U/ml heparin. Cells were harvested at confluency (based on status of vector control cells grown in normal growth media).
Because hst-β(FGF4):FGF1 stable transfectants and the sJ1 transfectants grown in FGF1-containing media form spheroids, all cells were harvested by scraping in the presence of the growth media dn then the cells/growth media was collected into sterile 15 ml conical tubes. Cells were pelleted by centrifugation at 800×g for 5′ at 4° C. After centrifugation, the supernatant was removed and the cell pellets were washed 3× with 1×PBS. Cells were lysed in 500 μl in 20 mM tris, pH 7.5 containing 300 mM sucrose, 60 mM KCl, 15 mM NaCl, 0.5 mM EDTA, 0.5% (v/v) Triton X-100 1 mM Phenymethyl sulfonyl flouride, 0.1% SDS, 2 μg/ml aprotinin, 10 μg/ml aprotinin, 10 μg/ml leupeptin, and 1 mM sodium orthovanadate for 15 minutes on ice. Cell lysates were pelleted and the supernatant containing soluble proteins removed.
Samples were normalized to protein concentration using the BCA Protein Assay Kit (Pierce). […]

**Q.** How did the “CSL1-dependent transcription, of the control level” value ([1]; 10 ng/ml exogenous FGF1) turn out when “FGF1: recombinant human fibroblast growth factor 1, added with heparin” was run?
**A.** The value was “approximately 25%”.

**Q.** And the spheroid formation ([2]; Notch-repressed cells (sJ1, dnN1))?
**A.** Its spheroid formation is “formed multicellular, spheroid-like structures”.

**Q.** What about the spheroid formation ([2]; vector control and caN1 transfectants) of the same compound?
**A.** The spheroid formation was “did not form spheroids”.

**Q.** And the “effect on caN1/CSL transcription” value [3]?
**A.** The value was “repressed caN1/CSL transcription in a dose-dependent fashion”.

**Q.** What about the “effect on colonies in soft agar” value ([4]; caN1 and vector control transfectants) of the same compound?
**A.** Its value is “either no effect or only resulted in the formation of sparse and very small colonies”.

**Q.** What about the “effect on colonies in soft agar” value ([4]; sJ1 and dnN1 transfectants) of the same compound?
**A.** The value was “greatly exaggerated the size of the colonies”.

**Q.** And the “reduction by dnFGFR1 expression of the ability to induce replicating nuclei” value [5]?
**A.** Its value is “approximately 70%”.

**Q.** What about the “effect on Jagged1 expression” value [6] of the same compound?
**A.** The value was “increased Jagged1 expression”.

**Q.** Which “effect of heparin on thrombin-dependent repression of CSL1-dependent transcription” value ([1]; heparin 5 units/ml with thrombin 10 μg/ml) does the source give for heparin [reference compound] here?
**A.** The value was “able to potentiate”.

**Q.** And the “effect on CSL1-dependent transcription” value ([1]; heparin by itself)?
**A.** The value was “ineffective”.

**Q.** What about the “effect on CSL1-dependent transcription” value ([1]; heparin in the presence of 10 μM TRAP) of the same compound?
**A.** Its value is “ineffective”.

**Q.** For COc1cc(OC)cc(-c2cc3cnc(N)nc3nc2NC(=O)NC(C)(C)C)c1 [PD166866], which “effect on FGF1-induced spheroid formation” value ([2]; 1 μM PD166866, sJ1, dnN1 and hst-β (FGF4):FGF1 stable transfectants) is on record?
**A.** The value was “completely abolished”.

**Q.** And the “effect on colony formation” value ([4]; 1 μM PD166866, caRas cells)?
**A.** Its value is “no effect”.

**Q.** And the “effect on FGF1-mediated colony formation” value ([4]; 1 μM PD166866, sJ1, dnN1 and hst-β (FGF4):FGF1 transfectants)?
**A.** The value was “substantially reduced”.

**Q.** And the “effect on small colony growth” value ([4]; 1 μM PD166866, sJ1 and dnN1 in the absence of FGF1)?
**A.** Its value is “inhibited”.
